Results from patent US20140329776A1, “Mitochondria-Targeted Antioxidants for Treatment of Age-Related Brain Disorders” (MITOTECH S.A., priority 2011, published 2014).

Key:
[1] = system: chronically alcoholised rats; test: open field test of chronically alcoholised rats; format: in vivo, rat; settings: vs Negative Control
Description: FIG. 9 is a graphic representation showing behavior parameters in the open field test of chronically alcoholised rats in % to intact control. (*−p<0.05; **—p<0.005 to negative control; #—p<0.05, ##—p<0.01, to intact control);
(§1) Male albino rats had free access to a 15% ethanol solution, as well as to food and water. After 6 months of alcoholisation, animals with average consumption more than 11 ml of 15% ethanol solution were divided into two even groups and subjected to the following treatment. The Negative Control group (n=16) (chronically alcoholised rats) were orally administered 1 ml per kg of isotonic 0.9% NaCl solution every two days for 20 days during alcohol deprivation. The SkQ1 group (n=17) (chronically alcoholised rats) were orally administered 1 ml per kg of SkQ1 250 nM solution every two days for 20 days during alcohol deprivation. The Intact Control group (n=10) (animals had no previous contact with ethanol) were orally administered 1 ml per kg of normal physiological solution every two days for 20 days.
(§2) After this course of drug administration, the effect on behavioral parameters was observed using the open field test, the elevated plus maze test, and the Porsolt forced swimming test.
In the open field test, treated animals had increased number of rearing ((p<0.05), number of entrance in central zone (p<0.01), movement time in central zone (p<0.05)) compared to the Negative Control group (FIG. 9. Therefore, SkQ1 increases exploratory activity during alcohol deprivation.

Wistar rats [2] = test: elevated plus maze, age-dependent behavioral defects; format: in vivo, rat; settings: 14-month-old rats
Description: Rats of 3 months and 14 months old were investigated. An elevated plus maze with two open and two closed arms was used. Young animals placed in the maze center entered both types of arms with equal probability (FIGS. 2A and 2C). However, the 14-month-old rats preferred to enter the closed arms only (FIG. 2D), the probability of entering the open arms being extremely low. If, nevertheless, a 14-month-old rat entered an open arm, the animal immediately left this arm (FIG. 2B). […] This difference was also abolished by SkQ1 (Stefanova, et al., J. Alzheimer's Dis. 21:479-491 (2010)).

Wistar rats [3] = test: elevated plus maze test 24 hours after ethanol narcosis; format: in vivo, rat; settings: 250 nM SkQ1 group; p<0.05
Description: FIG. 8 is a graphic representation showing behavior parameters in the elevated plus maze test 24 hours after ethanol narcosis in % to negative control. (*−p<0.05 to intact control);
In these experiments, 6 groups of experimental animals (Wistar rats) were used. (1) The Intact Control group (n=12), had no ethanol narcosis, and were orally administered a normal isotonic 0.9% NaCl solution; (2) the Negative Control group (n=12) was orally administered a normal physiological solution after ethanol narcosis; (3) The SkQ1 50 nM control group (n=12) was orally administered SkQ1 in a concentration 50 nM after ethanol narcosis; (4) The SkQ1 250 nM control group (n=12) was orally administered SkQ1 in a concentration of 250 nM after ethanol narcosis; (5) The SkQ1 1250 nM control group (n=12) was orally administered SkQ1 in a concentration of 1250 nM after ethanol narcosis; (6) the SkQ1 1250 nM intr control group (n=13) was intraperitoneally administered SkQ1 in a concentration of 1250 nM after ethanol narcosis.
Twenty-four hours after ethanol narcosis, elevated plus maze (Treit et al. (1993) Pharmacol. Biochem. Behav. 44:463-9) and Porsolt forced swimming (Petit-Demouliere et al. (2005) Psychopharmacol. (Berl). 177: 245-55) tests were performed. […]

[4] = system: chronically alcoholised rats; test: Porsolt forced swimming test of chronically alcoholised rats; format: in vivo, rat; settings: SkQ1 250 nM solution orally every two days for 20 days; p<0.05
Description: FIG. 11 is a graphic representation showing behavior parameters in the Porsolt forced swimming test of chronically alcoholised rats in % to intact control. (*−p<0.05 SKQ-1 to negative control); and
as §1, §2

[5] = system: hippocampal slice neurons; test: long-term potentiation (LTP) of hippocampal slices treated with Aβ after in vivo treatment; design: species or system rat
Description: FIG. 3B is a graphic representation showing the LTP caused by in vitro addition of Aβ, where the decay of LTP of hippocampal slice neurons characterized by a decrease of pop-spike amplitude (%) in a hippocampal slice treated with Aβ.
SkQR1 Aβ was added 15 min before the LTP induction with high-frequency electric stimulation (arrow). The decay of LTP (i.e. decrease of pop-spike amplitude) in a hippocampal slice treated with Aβ can be prevented by SkQR1 treatment.
FIG. 16 is a bar graph comparing the neuroprotective effects of preferred SkQ mitochondria-targeted antioxidants of the invention when administered in vivo in a model of Alzheimer disease.
As a model of cell memory, an electric response of a hippocampal slice (long-term potentiation, LTP) was used (Malenka, et al., Science 285:1870-1874 (1999)). A direct experiment was performed showing the prevention of Aβ toxicity in hippocampus by in vivo treatment of rats with 1 μmol SkQR1 per kg of body weight. The compound was injected intraperitoneally into the animal 24 hours before hippocampal slices were obtained to measure LTP. Some slices were pretreated with Aβ for 15 minutes. As is seen in FIG. 3B, Aβ impaired LTP relative to untreated control.
FIG. 16 provides a comparison of the neuroprotective effects of SkQ1, SkQR1 and C12TPP based on the LTP signal in neurons of hippocampal slices. Ab stands for beta-amyloid treatment. […] All SkQs and C12TPP were administered in vivo to rats prior the extraction of hippocampus.

[6] = 250 nmol/kg daily in food for 10 weeks

`CC1=C(C)C(=O)C(CCCCCCCCCC[P+](c2ccccc2)(c2ccccc2)c2ccccc2)=CC1=O` [SkQ1, plastoquinonyl decyltriphenyl-phosphonium] was tested, and the number of rearing ([1]; 1 ml per kg SkQ1 250 nM solution orally every two days for 20 days during alcohol deprivation, p<0.05) was “increased”, the “number of entrance in central zone” value ([1]; SkQ1 250 nM solution orally every two days for 20 days, p<0.01) was “increased” and the “movement time in central zone” value ([1]; SkQ1 250 nM solution orally every two days for 20 days, p<0.05) was “increased”. For the same compound, the “age effect in elevated plus maze” value (Wistar rats [2]; 250 nmol/kg body weight daily in food for 10 weeks) was “completely reversed”, the “probability of entering an open arm” value (Wistar rats [2]; [6]) was “as high as for young rats” and the “time spent in open arm” value (Wistar rats [2]; [6]) was “almost as long as for the young rodents”. For the same compound, the “looking out from closed arms” value (Wistar rats [3]) was “increased”, the “number of risk behavior” value (Wistar rats [3]) was “increased” and the immobilization time [4] was “less”. The “neuroprotective activity based on LTP signal, model of Alzheimer disease” value ([5]; administered in vivo to rats prior to extraction of hippocampus, beta-amyloid treatment, FIG. 16) was “neuroprotective activity” and the “impairment (decay) of LTP caused by Aβ” value ([5]; in vivo treatment (SkQR1 1 μmol/kg i.p. 24 hours before slices), Aβ added to slices for 15 min) was “prevents decay”.
